Measured values published in patent US12084458B2, “Substituted pyridines, pyridazines, and pyrimidines as TYK2 inhibitors” (Sudo Biosciences Limited, priority 2021, dated 2024).

Columns and labels:
Type in all cases: cell-based
[1] = system: HEK-Blue IL-23 cells (IL-23-stimulated STAT3 SEAP reporter; TYK2 JH2); assay: HEK-Blue IL-23 SEAP reporter assay for profiling TYK2 pseudokinase (JH2) inhibition; details: 10 ng/mL human recombinant IL-23, SEAP reporter, read-out: IL23 (TYK2 inhibitory activity, IC50)
Procedure: (§1) Example B-1: HEK-Blue™ IL-23 and IFNα/β Reporter Assays for Profiling TYK2 Pseudokinase (JH2) Inhibition
(§2) HEK-Blue™ IL-23 and IFNα/β cells with a stably-integrated cytokine receptor and STAT3 or STAT1 express STAT-inducible secreted embryonic alkaline phosphatase (SEAP) reporter gene upon cytokine stimulation. These cells are plated in DMEM (Gibco) containing 10% heat-inactivated FBS (Gibco) and 100 U/mL PenStrep (Gibco) at 37° C. under 5% CO2 conditions for 20-22 hours. The cells are then pretreated with serially diluted test compounds for 60 min prior to stimulation with either 10 ng/mL human recombinant IL-23 (Miltenyl Biotech) or 1 ng/mL human recombinant IFNα (InvivoGen) for 22-24 hours for IL-23 or 16-18 h for IFNα. SEAP induction is measured using the QUANTI Blue™ Solution (InvivoGen) according to the manufacturer's instructions.

[2] = system: HEK-Blue IFNα/β cells (IFNα-stimulated STAT1 SEAP reporter; TYK2 JH2); assay: HEK-Blue IFNα/β SEAP reporter assay for profiling TYK2 pseudokinase (JH2) inhibition; design: IFNα (TYK2 inhibitory activity, IC50): scale not given here; details: 1 ng/mL human recombinant IFNα; for IC50: Homo sapiens, HEK-Blue, read-out: IFNα (TYK2 inhibitory activity, IC50)
Procedure: as §1, §2

[3] = system: HEK-Blue IL-2 reporter cells (IL-2-stimulated STAT5 SEAP reporter); assay: HEK-Blue IL-2 SEAP reporter assay for determining selectivity; details: 4 ng/mL human recombinant IL-2
Procedure: (§3) Example B-3: HEK-Blue™ IL-2 and IFNγ Reporter Assays for Determining Selectivity
(§4) HEK-Blue™ IL-2 and IFNγ reporter cells with a stably-integrated cytokine receptor and STAT5 or STAT1 express STAT-inducible secreted embryonic alkaline phosphatase (SEAP) reporter gene upon cytokine stimulation. These cells were plated in DMEM (Gibco) containing 10% heat-inactivated FBS (Gibco) and 100 U/mL PenStrep (Gibco) at 37° C. under 5% CO2 conditions for 20-22 hours. The cells were then pretreated with serially diluted test compounds for 60 min prior to stimulation with either 4 ng/mL human recombinant IL-2 (Miltenyl Biotech) or 50 ng/mL human recombinant IFNγ (InvivoGen) for 24 hours. SEAP induction was measured using the QUANTI-Blue™ Solution (InvivoGen) according to the manufacturer's instructions.

[4] = system: HEK-Blue IFNγ reporter cells (IFNγ-stimulated STAT1 SEAP reporter); assay: HEK-Blue IFNγ SEAP reporter assay for determining selectivity; details: Homo sapiens, HEK-Blue, 50 ng/mL human recombinant IFNγ, read-out: IFN-γ (SEAP selectivity, IC50)
Procedure: as §3, §4

Row | Structure (SMILES) | IC50 [1] [nM] | IC50 [2] [nM] | IC50 [3] [nM] | IC50 [4] [nM] | IFNα (TYK2 inhibitory activity, IC50) [2]
1 | [2H]C([2H])([2H])NC(=O)c1nnc(NC(=O)C2CC2)cc1Nc1cccc2c1N(C)[C@@H](C)c1nc(C)nn1-2 (single isomer, unassigned) [Compound 22] | < 30 | < 30 | > 1000 | 300 to 1000 | –
2 | [2H]C([2H])([2H])NC(=O)c1cnc(NC(=O)C2CC2)cc1Nc1cccc2c1N(C)[C@@H](C)c1nc(C)nn1-2 (single isomer, unassigned) [Compound 25] | < 30 | < 30 | > 1000 | > 1000 | –
3 | [2H]C([2H])([2H])NC(=O)c1cnc(NC(=O)NC)cc1Nc1cccc2c1N(C)[C@@H](C)c1nn(C)nc1-2 (single isomer, unassigned) [Compound 55] | < 30 | < 30 | > 1000 | > 1000 | –
4 | [2H]C([2H])([2H])NC(=O)c1cnc(NC(=O)NC)cc1Nc1cccc2c1N(C)[C@H](C)c1nn(C)nc1-2 (single isomer, unassigned) [Compound 56] | 30 to 300 | > 1000 | > 1000 | > 1000 | –
5 | [2H]C([2H])([2H])NC(=O)c1cnc(NC(=O)C2CC2)cc1Nc1cccc2c1N(C)[C@@H](C)c1nn(C)nc1-2 (single isomer, unassigned) [Compound 57] | < 30 | < 30 | > 1000 | > 1000 | –
6 | [2H]C([2H])([2H])NC(=O)c1cnc(Nc2ccc(F)cn2)cc1Nc1cccc2c1N(C)Cc1nc(C)nn1-2 [Compound 27, 4-((2,5-dimethyl-4,5-dihydro-[1,2,4]triazolo[1,5-a]quinoxalin-6-yl)amino)-6-((5-fluoropyridin-2-yl)amino)-N-(methyl-d3)nicotinamide] | < 30 | – | > 1000 | 300 to 1000 | –
7 | [2H]C([2H])([2H])NC(=O)c1cnc(NC(=O)N(C)C)cc1Nc1cccc2c1N(C)Cc1nn(C)nc1-2 [Compound 51, 4-((2,5-dimethyl-4,5-dihydro-2H-[1,2,3]triazolo[4,5-c]quinolin-6-yl)amino)-6-(3,3-dimethylureido)-N-(methyl-d3)nicotinamide] | < 30 | – | > 1000 | – | –
8 | [2H]C([2H])([2H])NC(=O)c1cnc(NC(=O)C2CC2)c(F)c1Nc1cccc2c1N(C)Cc1nn(C)nc1-2 [Compound 65, 6-(cyclopropanecarboxamido)-4-((2,5-dimethyl-4,5-dihydro-2H-[1,2,3]triazolo[4,5-c]quinolin-6-yl)amino)-5-fluoro-N-(methyl-d3)nicotinamide] | 300 to 1000 | – | – | – | C/D
9 | [2H]C([2H])([2H])NC(=O)Nc1cc(Nc2cccc3c2N(C)Cc2nn(C)nc2-3)c(C(=O)NC([2H])([2H])[2H])cn1 [Compound 67, 4-((2,5-dimethyl-4,5-dihydro-2H-[1,2,3]triazolo[4,5-c]quinolin-6-yl)amino)-N-(methyl-d3)-6-(3-(methyl-d3)ureido)nicotinamide] | < 30 | < 30 | > 1000 | – | –
10 | CNC(=O)c1nnc(Nc2ccc(F)cn2)cc1Nc1cccc2c1OCCCn1cnnc1-2 [Compound 74, 4-((6,7-dihydro-5H-benzo[b][1,2,4]triazolo[3,4-d][1,5]oxazocin-9-yl)amino)-6-((5-fluoropyridin-2-yl)amino)-N-methylpyridazine-3-carboxamide] | > 1000 | > 1000 | – | – | –
11 | CNC(=O)c1nnc(NC(=O)C2CC2)cc1Nc1cccc2c1OCCCn1cnnc1-2 [Compound 75, 6-(cyclopropanecarboxamido)-4-((6,7-dihydro-5H-benzo[b][1,2,4]triazolo[3,4-d][1,5]oxazocin-9-yl)amino)-N-methylpyridazine-3-carboxamide] | > 1000 | > 1000 | – | – | –
12 | [2H]C([2H])([2H])NC(=O)c1nnc(N2CCN(C(C)C)C2=O)cc1Nc1cccc2c1N(C)Cc1nc(C)nn1-2 [Compound 81, 4-((2,5-dimethyl-4,5-dihydro-[1,2,4]triazolo[1,5-a]quinoxalin-6-yl)amino)-6-(3-isopropyl-2-oxoimidazolidin-1-yl)-N-(methyl-d3)pyridazine-3-carboxamide] | 30 to 300 | – | – | – | C/D
13 | [2H]C([2H])([2H])NC(=O)c1cnc(N(C)C(=O)C2CC2)cc1Nc1cccc2c1N(C)Cc1nc(C)nn1-2 [Compound 82, 4-((2,5-dimethyl-4,5-dihydro-[1,2,4]triazolo[1,5-a]quinoxalin-6-yl)amino)-N-(methyl-d3)-6-(N-methylcyclopropanecarboxamido)nicotinamide] | > 1000 | > 1000 | – | – | –
14 | [2H]C([2H])([2H])NC(=O)c1cnc(NC(=O)C2CC2)cc1Nc1ccnc2c1N(C)Cc1nc(C)nn1-2 [Compound 86, 6-(cyclopropanecarboxamido)-4-((2,5-dimethyl-4,5-dihydropyrido[3,2-e][1,2,4]triazolo[1,5-a]pyrazin-6-yl)amino)-N-(methyl-d3)nicotinamide] | 30 to 300 | 300 to 1000 | – | – | –
15 | [2H]C([2H])([2H])NC(=O)c1nnc(NC(=O)C2CC2)cc1Nc1ccnc2c1N(C)Cc1nc(C)nn1-2 [Compound 87, 6-(cyclopropanecarboxamido)-4-((2,5-dimethyl-4,5-dihydropyrido[3,2-e][1,2,4]triazolo[1,5-a]pyrazin-6-yl)amino)-N-(methyl-d3)pyridazine-3-carboxamide] | 30 to 300 | 300 to 1000 | – | – | –
16 | [2H]C([2H])([2H])NC(=O)c1nnc(NC(=O)C2CC2)cc1Nc1c(F)ccc2c1N(C)Cc1nc(C)nn1-2 [Compound 98, 6-(cyclopropanecarboxamido)-4-((7-fluoro-2,5-dimethyl-4,5-dihydro-[1,2,4]triazolo[1,5-a]quinoxalin-6-yl)amino)-N-(methyl-d3)pyridazine-3-carboxamide] | 30 to 300 | – | – | – | C/D
17 | [2H]C([2H])([2H])NC(=O)c1nnc(NC(=O)NC)cc1Nc1cc(F)cc2c1N(C)Cc1nc(C)nn1-2 [Compound 103, 4-((8-fluoro-2,5-dimethyl-4,5-dihydro-[1,2,4]triazolo[1,5-a]quinoxalin-6-yl)amino)-N-(methyl-d3)-6-(3-methylureido)pyridazine-3-carboxamide] | 30 to 300 | 30 to 300 | – | – | –
18 | [2H]C([2H])([2H])NC(=O)c1nnc(NC(=O)C2CC2)cc1Nc1nccc2c1N(C)[C@@H](C)c1nc(C)nn1-2 [Compound 112, (S)-6-(cyclopropanecarboxamido)-N-(methyl-d3)-4-((2,4,5-trimethyl-4,5-dihydropyrido[3,4-e][1,2,4]triazolo[1,5-a]pyrazin-6-yl)amino)pyridazine-3-carboxamide] | < 30 | 30 to 300 | – | – | –
19 | [2H]C([2H])([2H])NC(=O)c1nnc(NC(=O)C2CC2)cc1Nc1nccc2c1N(C)[C@@H](C([2H])([2H])[2H])c1nn(C)nc1-2 [Compound 113, (S)-6-(cyclopropanecarboxamido)-4-((2,5-dimethyl-4-(methyl-d3)-4,5-dihydro-2H-[1,2,3]triazolo[4,5-c][1,7]naphthyridin-6-yl)amino)-N-(methyl-d3)pyridazine-3-carboxamide] | 30 to 300 | 30 to 300 | – | – | –
20 | [2H]C([2H])([2H])NC(=O)c1nnc(NC(=O)C2CC2)cc1Nc1nccc2c1N(C)[C@H](C([2H])([2H])[2H])c1nn(C)nc1-2 [Compound 114, (R)-6-(cyclopropanecarboxamido)-4-((2,5-dimethyl-4-(methyl-d3)-4,5-dihydro-2H-[1,2,3]triazolo[4,5-c][1,7]naphthyridin-6-yl)amino)-N-(methyl-d3)pyridazine-3-carboxamide] | < 30 | < 30 | – | – | –
21 | [2H]C([2H])([2H])NC(=O)c1nnc(NC(=O)[C@H]2C[C@H]2F)cc1Nc1nccc2c1N(C)Cc1nn(C)nc1-2 [Compound 115, 4-((2,5-dimethyl-4,5-dihydro-2H-[1,2,3]triazolo[4,5-c][1,7]naphthyridin-6-yl)amino)-6-((1R,2R)-2-fluorocyclopropane-1-carboxamido)-N-(methyl-d3)pyridazine-3-carboxamide] | < 30 | < 30 | – | – | –
22 | [2H]C([2H])([2H])NC(=O)c1nnc(NC(=O)[C@@H]2C[C@@H]2F)cc1Nc1nccc2c1N(C)Cc1nn(C)nc1-2 [Compound 116, 4-((2,5-dimethyl-4,5-dihydro-2H-[1,2,3]triazolo[4,5-c][1,7]naphthyridin-6-yl)amino)-6-((1S,2S)-2-fluorocyclopropane-1-carboxamido)-N-(methyl-d3)pyridazine-3-carboxamide] | 30 to 300 | 300 to 1000 | – | – | –
